Test results published in ChEMBL document CHEMBL1132665, “Casein kinase II inhibitors isolated from two Brazilian plants Hymenaea parvifolia and Wulffia baccata” (Bioorg Med Chem Lett, 1999).

Key:
[1] = molecular target: T1, Casein kinase II (Homo sapiens) (UniProt P67870+P68400+P19784); experiment: Inhibition of CK-II-mediated 60S acidic ribosomal P protein activity at 10 uM; assay type: functional
[2] = molecular target: T1, Casein kinase II (Homo sapiens); experiment: In vitro inhibitory activity against casein kinase II was determined; assay type: protein-complex assay

Activity [1]	ID50 [2] [µM]	Compound
Dose-dependent effect	9	C[C@H]1OC(O[C@H]2C(=O)c3c(O)cc(O)cc3O[C@@H]2c2ccc(O)c(O)c2)[C@H](O)[C@H](O)[C@@H]1O (stereo partly specified)
Dose-dependent effect	–	C[C@@H]1CC[C@]2(C(=O)O)CC[C@]3(C)C(=CC[C@@H]4[C@]56CC[C@@](O)(OC5)C(C)(C)[C@@H]6CC[C@]43C)C2[C@H]1C (stereo partly specified)
Dose-dependent effect	–	C/C=C(/C)C(=O)O[C@@H]1CC(C)(C)CC2C3=CC[C@@H]4[C@]56CC[C@@](O)(OC5)C(C)(C)[C@@H]6CC[C@@]4(C)[C@]3(C)CC[C@]21C(=O)O (stereo partly specified)
Dose-dependent effect	7	C[C@H]1OC(O[C@@H]2C(=O)c3c(O)cc(O)cc3O[C@H]2c2ccc(O)c(O)c2)[C@H](O)[C@H](O)[C@@H]1O (stereo partly specified)
